Patent US11266655B2, “Methods and compositions for treating urea cycle disorders” (Camp4 Therapeutics Corporation, priority 2019, dated 2022)

Assays:
OTC [1] = assay: JAK inhibitors at 0.3 and 3 μM in primary human hepatocytes, OTC mRNA fold change; assay type: cell-based; conditions: fold change vs DMSO
Protocol: (§1) Additional small molecules that inhibit JAK1, JAK2, JAK3, or a combination of the JAK proteins were tested in primary human hepatocytes as described in Example 2. JAK inhibitors were tested in triplicate at 0.3 μM and 3 μM. The results are shown as the fold change (mRNA FC) in the mRNA levels of OTC and CPS1 genes after treatment compared to an untreated control (DMSO) and the standard deviation (SD).

Cps1 [2] = assay: JAK1 inhibitors in C57/B16 mice, liver Cps1 mRNA by qRT-PCR; assay type: in vivo, mouse; conditions: i.p. once daily for 4 days, 6 hours after administration, vs control treated mice
Protocol: (§6) After the final dose, the animals were sacrificed, their livers were harvested and snap-frozen. The livers were processed to extract total RNA and the mRNA for Otc and Cps1 were measured using qRT-PCR relative to the geometric mean of the expression levels of several housekeeping genes (Actb, B2m, Ppia, Gapdh, Hprt, Gusb).

CPS1 [3] = assay: JAK inhibitors at 0.3 and 3 μM in primary human hepatocytes, CPS1 mRNA fold change; assay type: cell-based; conditions: fold change vs DMSO
Protocol: as §1

Otc [4] = assay: JAK1 inhibitors in C57/B16 mice, liver Otc mRNA by qRT-PCR; assay type: in vivo, mouse; conditions: i.p. once daily for 4 days, 6 hours after administration, vs control treated mice
Protocol: as §6

Socs1 = assay: JAK1 inhibitors in C57/B16 mice, Socs1 mRNA; assay type: in vivo, mouse; conditions: i.p. once daily for 4 days
Protocol: 8-10 week old male C57/B16 mice were injected intraperitoneally with JAK1 inhibitors updactinib at 10 mg/kg or tofacitinib at 15 mg/kg. 8-10 week old male C57/B16 mice were injected intraperitoneally with JAK1 inhibitors updactinib at 10 mg/kg or tofacitinib at 15 mg/kg once daily for 4 days. After the final dose, the animals were sacrificed, their livers were harvested and snap-frozen.

CPS1 [5] = assay: siRNA knockdown of JAK/STAT/IRF genes in hepatocytes, CPS1 mRNA; assay type: cell-based, human; conditions: 10 nM siRNA plus 0.03 nM JAK1 siRNA, FIG. 27D
Excerpt: (§2) To confirm that JAK1 inhibition is necessary for OTC and CPS1 gene expression increase, JAK1, JAK2, and JAK3 expression was knocked down using the siRNA methods previously described in Example 1 (JAK1 siRNA Dharmacon #M-003145-02-0005; JAK2 siRNA Dharmacon #M-003146-02-0005; JAK3 siRNA Dharmacon #M-003147-01-0005). The cells were harvest for mRNA collection and quantification as previously described.
(§3) To confirm the role of JAK1 and investigate the role of other signaling proteins and transcription factors in OTC and CPS1 expression, a panel of additional genes were knocked down with siRNA alone or in combination with JAK1. In particular, JAK2 was knockdown alone or in combination with JAK1. The combinations are shown in FIG. 26A and FIG. 26B. siRNA used to knock down JAK1 and JAK2 were: JAK1 siRNA Dharmacon #M-003145-02-0005; JAK2 siRNA Dharmacon #M-003146-02-0005. OTC and CPS1 mRNA expression was normalized to B2M. The assay was performed in triplicate in three donor hepatocyte cell lines: 371, 171, and 511A.
(§4) Cells were harvested after siRNA treatment for mRNA quantification. JAK1, OTC, and CPS1 mRNA levels were normalized to GUSB.

OTC [6] = assay: siRNA knockdown of JAK/STAT/IRF genes in hepatocytes, OTC mRNA; assay type: cell-based, human; conditions: 10 nM siRNA plus 0.03 nM JAK1 siRNA, FIG. 27C
Excerpt: as §2
In addition, STAT5B is a JAK1 signal transducer and transcription factor activated by JAK1. STAT5B was knocked down in hepatocytes using siRNA (Dharmacon cat #M-010539-02-0005) as previously described in Example 1. The cells were harvest for mRNA collection and quantification as previously described.
as §3, §4

OTC [7] = assay: CPS1 siRNA with or without JAK1 FANA ASO, OTC mRNA; assay type: cell-based, human; conditions: FIG. 24C, 24D
Protocol: (§5) Next, the link between CPS1 expression and OTC expression was investigated. siRNA targeting CPS1 was added to wells with media and the cells added to the wells (reverse transfection). The next day, the media was refreshed, and in some samples a FANA antisense oligonucleotide (ASO) directed to JAK1 was added to the wells. A scrambled ASO was used as a control for the treatment. After incubating with the JAK1 or scrambled ASO for 48 h, the cells were re-transfected with siRNA targeting CPS1 and incubated overnight (forward transfection) after which the media was refreshed. Cells were further incubated for 24 hours and harvested for analysis of the CPS1, OTC, and JAK1 mRNA expression levels. Similar methods were used to prepare cells with only the JAK1 FANA treatment and the CPS1 forward transfection, or only the CPS1 forward transfection. Scrambled RNA (NTC) was used as a control for CPS1 knockdown.

OTC [8] = assay: JAK1 FANA ASO knockdown in primary human hepatocytes, OTC mRNA; assay type: cell-based; conditions: 10 uM FANA ASO, 5 days post-plating, vs scrambled control; listed as FANA (2′-deoxy-2′-fluoro-beta-D-arabinonucleic acid antisense) RNA
CPS1 [9] = assay: CPS1 siRNA with or without JAK1 FANA ASO, CPS1 mRNA; assay type: cell-based, human; conditions: FIG. 24A, 24B
Protocol: as §5

CPS1 [10] = assay: JAK1 FANA ASO knockdown in primary human hepatocytes, CPS1 mRNA; assay type: cell-based; conditions: 10 uM FANA ASO, 5 days post-plating, vs scrambled control; listed as FANA (2′-deoxy-2′-fluoro-beta-D-arabinonucleic acid antisense) RNA

C[C@@H]1CCN(C(=O)CC#N)C[C@@H]1N(C)c1ncnc2[nH]ccc12 [tofacitinib]
OTC mRNA FC (OTC [1]; 0.3 uM): 3.2
OTC mRNA FC (OTC [1]; 3 uM): 5.17
Cps1 expression in liver (Cps1 [2]): increased
CPS1 mRNA FC (CPS1 [3]; 0.3 uM): 1.67
CPS1 mRNA FC (CPS1 [3]; 3 uM): 2.54
Otc expression in liver (Otc [4]): increase
Socs1 mRNA expression (Socs1): decreased

IRF9 (DNA AWCGAAACCGAAACY; target site or template, no part of the molecule; chemistry not given here)
CPS1 expression after knockdown in combination with JAK1 (CPS1 [5]): increased
OTC expression after knockdown in combination with JAK1 (OTC [6]): increased

JAK1 FANA: 2′-deoxy-2′-fluoro-beta-D-arabinonucleic acid antisense oligonucleotide to JAK1, sequence TTGTAGCTGATGTCCTTGGG (FANA (2'-fluoro-arabino) ASO, modification pattern and linkages not given here)
OTC expression after CPS1 siRNA and/or JAK1 FANA (OTC [7]): increased
OTC gene expression after JAK1 FANA ASO (OTC [8]): increased
CPS1 mRNA levels after CPS1 siRNA and/or JAK1 FANA (CPS1 [9]): increased
CPS1 gene expression after JAK1 FANA ASO (CPS1 [10]): increased
